Measured values as given in patent publication US12291654B2, “Fluorescent polymeric coating film for medical devices” (UNIVERSITE DE STRASBOURG, priority 2018, dated 2025).

Assays:
[1] = NIR fluorescence of coated stainless steel wires (fluorescent image system); format: physicochemical; conditions: PMMA film, dye 1 wt %; coated 1, 2, 3 or 5 times; FIG. 1
Experimental: Polymethylmethacrylate is dissolved at 30 mg/ml in acetonitrile.
At this step the fiducial is ready to use.

[2] = Fluorescence of coating films made from different hydrophobic polymers (PMMA, PLGA, PLC); format: physicochemical; conditions: PLGA or PLC, FIG. 10A, 10B
Experimental: The coating films based on ICG are prepared as control.
Coating films made from different polymers were also tested.

CCCCCCCCCCCCCCCCCCN1/C(=C/C=C/C=C/C=C/C2=[N+](CCCCCCCCCCCCCCCCCC)c3ccc4ccccc4c3C2(C)C)C(C)(C)c2c1ccc1ccccc21 [Cy7.5-C18-TPB, Dioctadecylcyanine 7.5 tetraphenylborate]
NIR fluorescence of coating film on stainless steel wire [1]: visible after the first coating and increases by multiple coating | brightness of coating films, different polymers [2]: better brightness than a coating film based on ICG

CCCCCCCCCCCCCCCCCCN1/C(=C/C=C2\CCCC(/C=C/C3=[N+](CCCCCCCCCCCCCCCCCC)c4ccc5ccccc5c4C3(C)C)=C2Oc2c(-c3ccccc3)cccc2-c2ccccc2)C(C)(C)c2c1ccc1ccccc21.[I-] [HA-06-I]
brightness of coating films, different polymers [2]: better brightness than a coating film based on ICG
